The values that follow are results of earlier work, collected in US5484785A, “Salts of a quinolone-carboxylic acid” (Cheil Foods & Chemicals, Inc., priority 1992, dated 1996).

Data set [1] relates to bacteria.

On to methanesulfonate, for which the “pH of known Ciprofloxacin salts (in words)” value (solution) is “very low value of pH”. As for `O=C(O)c1cn(C2CC2)c2cc(N3CCNCC3)c(F)cc2c1=O` [Ciprofloxacin lactate], for the setting “lactate: contained in the injection in an excessive amount”, the “Precipitation in injection/solution (in words)” value is “tends to occur precipitation in an injection”.

On to `O=C(O)c1cn(C2CC2)c2cc(N3CCNCC3)c(F)cc2c1=O` [Ciprofloxacin, 1-cyclopropyl-6-fluoro-1,4-dihydro-4-oxo-7-(1-piperazinyl)-quinoline-3-carboxylic acid], for which the “Antibacterial activities (in words)” value in data set [1] is “potent antibacterial activities”.
